A short description of data set [1]: Test B: Cytotoxicity Assay. In kind it is cell-based. The conditions noted are these: human, uninfected MT-4 cells, same protocol as Test A. In short, it runs like this:
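Uninfected MT-4 cells (2000 per well) incubated with diluted compound at 37° C. for 5 days, following the antiviral protocol without HIV-IIIb.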

The subject of data set [2] is HIV-IIIb. In words: Test A: Antiviral Assay in MT4 Cells. The conditions noted are these: Human immunodeficiency virus 1, IIIB, MT4, 120 h; for inhibition at 0.2 µM: read-out: % inhibition at 0.2 μM; for inhibition at 2 µM: read-out: % inhibition at 2 μM. In kind it is cell-based, HIV-1. How it is done: Test A: Antiviral Assay in MT4 Cells
MT-4 cells were next mixed with HIV-IIIb at an m.o.i of 0.003 for 1 hour, after which time 35 μL of virus/cell mixture (2000 cells) was immediately added to each well containing 40 μL of diluted compound. The plates were then incubated at 37° C. for 5 days. […] Cell lysis was carried out by incubating at room temperature for 10 min and then chemiluminescence was read.

As usually defined, the CC50 is the concentration giving 50% cytotoxicity. Lower therefore signals greater toxicity to the cells. What is called inhibition is the relative decrease from the control value, in per cent.

For the compound `Cn1nc(NS(C)(=O)=O)c2c(Cl)ccc(-c3ccc(C#CC(C)(C)O)nc3[C@H](Cc3cc(F)cc(F)c3)NC(=O)Cn3nc(C4(O)CC4)c4c3CCCC4)c21` [Compound 156E, (S)—N-(1-(3-(4 chloro-1-methyl-3-(methylsulfonamido)-1H-indazol-7-yl)-6-(3-hydroxy-3-methylbut-1-yn-1-yl)pyridin-2-yl)-2-(3,5-difluorophenyl)ethyl)-2-(3-(1-hydroxycyclopropyl)-4,5,6,7-tetrahydro-1H-indazol-1-yl)acetamide], the CC50 at 5 days in data set [1] amounted to 25.6 µM. Also, in data set [2], the inhibition at 0.2 µM came out at 78% and the inhibition at 2 µM was 78%.
Compound `Cn1nc(NS(N)(=O)=O)c2cccc(-c3ccc(C#CC(C)(C)O)nc3[C@H](Cc3cc(F)cc(F)c3)NC(=O)Cn3nc(C(F)F)c4c3C(F)(F)[C@@H]3C[C@H]43)c21` [Compound 54, 2-((3b-S,4aR)-3-(difluoromethyl)-5,5-difluoro-3b,4,4a,5-tetrahydro-1H-cyclopropa[3,4]cyclopenta[1,2-c]pyrazol-1-yl)-N—((S)-2-(3,5-difluorophenyl)-1-(6-(3-hydroxy-3-methylbut-1-yn-1-yl)-3-(1-methyl-3-(sulfamoylamino)-1H-indazol-7-yl)pyridin-2-yl)ethyl)acetamide] had a CC50 at 5 days in data set [1] of 8.08 µM. In data set [2], the inhibition at 0.2 µM was 98% and the inhibition at 2 µM turned out to be 98%.
For the compound `Cn1nc(NS(C)(=O)=O)c2c(Cl)ccc(-c3ccc(C#CC(C)(C)C)nc3[C@H](Cc3cc(F)cc(F)c3)NC(=O)Cn3nc(C(F)F)c4c3C(F)(F)[C@@H]3C[C@H]43)c21` [Compound 131E, N—((S)-1-(3-(4-chloro-1-methyl-3-(methylsulfonamido)-1H-indazol-7-yl)-6-(3,3-dimethylbut-1-yn-1-yl)pyridin-2-yl)-2-(3,5-difluorophenyl)ethyl)-2-((3b-S,4aR)-3-(difluoromethyl)-5,5-difluoro-3b,4,4a,5-tetrahydro-1H-cyclopropa[3,4]cyclopenta[1,2-c]pyrazol-1-yl)acetamide], the cytotoxic concentration (CC50) at 5 days in data set [1] amounted to 22.5 µM. Further, in data set [2], the inhibition at 0.2 µM came out at 95% and the inhibition at 2 µM stood at 96%.
In data set [1], `Cn1nc(NS(N)(=O)=O)c2c(Cl)ccc(-c3ccc(C#CC(C)(C)O)nc3[C@H](Cc3cc(F)cc(F)c3)NC(=O)Cn3nc(C(F)F)c4c3C(F)(F)[C@@H]3C[C@H]43)c21` [Compound 70, N—((S)-1-(3-(4-chloro-1-methyl-3-(sulfamoylamino)-1H-indazol-7-yl)-6-(3-hydroxy-3-methylbut-1-yn-1-yl)pyridin-2-yl)-2-(3,5-difluorophenyl)ethyl)-2-((3b-S,4aR)-3-(difluoromethyl)-5,5-difluoro-3b,4,4a,5-tetrahydro-1H-cyclopropa[3,4]cyclopenta[1,2-c]pyrazol-1-yl)acetamide] had a CC50 at 5 days of 9.98 µM. Further, in data set [2], the inhibition at 0.2 µM amounted to 94% and the inhibition at 2 µM is 94%.
For `Cc1[nH]c2ccc(O)cc2c1CC(=O)N[C@@H](Cc1cc(F)cc(F)c1)c1nc(C#CC(C)(C)O)ccc1-c1ccc(Cl)c2c(NS(C)(=O)=O)nn(C)c12` [Compound 192, (S)—N-(1-(3-(4 chloro-1-methyl-3-(methylsulfonamido)-1H-indazol-7-yl)-6-(3-hydroxy-3-methylbut-1-yn-1-yl)pyridin-2-yl)-2-(3,5-difluorophenyl)ethyl)-2-(5-hydroxy-2-methyl-1H-indol-3-yl)acetamide], in data set [1], the CC50 at 5 days stood at 28.8 µM. In addition, in data set [2], the inhibition at 0.2 µM is 95% and the inhibition at 2 µM came to 98%.

These data come from patent US20140303164A1, “THERAPEUTIC COMPOUNDS” (Gilead Sciences, Inc., priority 2013, published 2014).
